Format: physicochemical
Experimental: In order to assess the API release profile from the prototypes in Example 4 to identify a lead formulation, a robust dissolution method was developed. Solubility studies were performed on the API for the selection of dissolution media. For these studies, the active concentration of the dissolution media was 0.1 milligrams per milliliter (mg/mL).
According to USP guidelines (on sink conditions) the solubility needs to be at least 3 times the proposed active concentration. […] The studies next turned to the use of higher hydrocortisone acetate concentrations (0.3 mg/mL).
In order to avoid ionization of the hydrocortisone acetate in the dissolution media, a buffer of pH 5.0 was used in combination with 5% w/v SLS. The final composition of the dissolution media was 5% w/v SLS:acetate buffer (pH 5.0) in 70:30 combination with the pH of the final combination adjusted to 6.8-7.0.

average recovered solubility: 98.4%
% Solubility API (pH 7.2): 4.1%
SMILES: CC(=O)OCC(=O)[C@@]1(O)CC[C@H]2[C@@H]3CCC4=CC(=O)CC[C@]4(C)[C@H]3[C@@H](O)C[C@@]21C [hydrocortisone acetate]
